The source of these data is patent US9353104B2, “Substituted pyridizinone derivatives as PDE10 inhibitors” (priority 2013, dated 2016).

human PDE10A2, sequence (Q9Y233 267-1055): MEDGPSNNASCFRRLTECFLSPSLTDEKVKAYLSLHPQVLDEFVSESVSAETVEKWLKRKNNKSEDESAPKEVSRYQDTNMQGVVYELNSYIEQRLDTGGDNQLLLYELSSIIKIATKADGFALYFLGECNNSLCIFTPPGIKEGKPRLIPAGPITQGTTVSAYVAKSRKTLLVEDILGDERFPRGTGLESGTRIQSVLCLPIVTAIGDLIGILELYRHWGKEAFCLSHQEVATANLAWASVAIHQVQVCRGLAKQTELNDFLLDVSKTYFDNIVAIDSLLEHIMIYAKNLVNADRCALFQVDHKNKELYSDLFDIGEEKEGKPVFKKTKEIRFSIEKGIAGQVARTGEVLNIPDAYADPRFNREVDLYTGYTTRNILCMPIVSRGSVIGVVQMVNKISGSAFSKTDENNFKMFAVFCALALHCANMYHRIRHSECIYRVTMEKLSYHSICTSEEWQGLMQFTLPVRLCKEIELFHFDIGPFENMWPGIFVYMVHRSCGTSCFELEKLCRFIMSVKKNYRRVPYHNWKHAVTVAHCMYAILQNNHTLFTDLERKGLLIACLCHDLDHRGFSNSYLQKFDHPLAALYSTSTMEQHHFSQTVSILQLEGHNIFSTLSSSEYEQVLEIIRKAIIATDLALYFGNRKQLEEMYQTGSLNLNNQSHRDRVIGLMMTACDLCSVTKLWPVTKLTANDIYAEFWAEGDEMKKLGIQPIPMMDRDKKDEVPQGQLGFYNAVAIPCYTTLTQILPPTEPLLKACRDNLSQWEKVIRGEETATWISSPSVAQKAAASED

The target in this test is human PDE10A2 (Homo sapiens (Human), UniProt Q9Y233). Put plainly: PDE10 fluorescence polarization (IMAP FP) inhibition assay. The format is biochemical. Conditions: human PDE10A2 lysate, FAM-labeled cAMP 50 nM, room temperature; read-out: PDE10A Ki. Here is the method:
The activity of the compounds in accordance with the present invention as PDE10 inhibitors may be readily determined without undue experimentation using a fluorescence polarization (FP) methodology that is well known in the art (Huang, W., et al., J. Biomol Screen, 2002, 7: 215). […] In a typical experiment the PDE10 inhibitory activity of the compounds of the present invention was determined in accordance with the following experimental method. PDE10A2 was amplified from human fetal brain cDNA (Clontech, Mountain View, Calif.) using a forward primer corresponding to nucleotides 56-77 of human PDE10A2 (Accession No. AF127480, Genbank Identifier 4894716), containing a Kozak consensus sequence, and a reverse primer corresponding to nucleotides 2406-2413 of human PDE10A2 (Accession No. AF127480, Genbank Identifier 4894716). Amplification with Easy-A polymerase (Stratagene, La Jolla, Calif.) was 95° C. for 2 minutes followed by thirty three cycles of 95° C. for 40 seconds, 55° C. for 30 seconds, and 72° C. for 2 minutes 48 seconds. Final extension was 72° C. for 7 minutes. The PCR product was TA cloned into pcDNA3.2-TOPO (Invitrogen, Carlsbad, Calif.) according to standard protocol. AD293 cells with 70-80% confluency were transiently transfected with human PDE10A2/pcDNA3.2-TOPO using Lipofectamine 2000 according to manufacturer specifications (Invitrogen, Carlsbad, Calif.). Cells were harvested 48 hours post-transfection and lysed by sonication (setting 3, 10×5 sec pulses) in a buffer containing 20 mM HEPES, 1 mM EDTA and protease inhibitor cocktail (Roche). Lysate was collected by centrifugation at 75,000×g for 20 minutes. Supernatant containing the cytoplasmic fraction was used for evaluation of PDE10A2 activity. The fluorescence polarization assay for cyclic nucleotide phosphodiesterases was performed using an IMAP® FP kit supplied by Molecular Devices, Sunnyvale, Calif. (product #R8139). IMAP® technology has been applied previously to phosphodiesterase assays (Huang, W., et al., J. Biomol Screen, 2002, 7: 215). Assays were performed at room temperature in 384-well microtiter plates with an incubation volume of 20.2 μL. Solutions of test compounds were prepared in DMSO and serially diluted with DMSO to yield 8 μL of each of 10 solutions differing by 3-fold in concentration, at 32 serial dilutions per plate. 100% inhibition is determined using a known PDE10 inhibitor, which can be any compound that is present at 5,000 times its Ki value in the assay described as follows, such as papaverine (see Siuciak, et al. Neuropharmacology (2006) 51:386-396; Becker, et al. Behav Brain Res (2008) 186(2):155-60; Threlfell, et al., J Pharmacol Exp Ther (2009) 328(3):785-795), 2-{4-[pyridin-4-yl-1-(2,2,2-trifluoroethyl)-1H-pyrazol-3-yl]phenoxymethyl}quinoline succinic acid or 2-[4-(1-methyl-4-pyridin-4-yl-1H-pyrazol-3-yl)-phenoxymethyl]quinoline succinic acid (see Schmidt, et al. J Pharmacol Exp Ther (2008) 325:681-690; Threlfell, et al., J Pharmacol Exp Ther (2009) 328(3): 785-795). 0% of inhibition is determined by using DMSO (1% final concentrations).
A Labcyte Echo 555 (Labcyte, Sunnyvale, Calif.) is used to dispense 200 nL from each well of the titration plate to the 384 well assay plate. A solution of enzyme (1/1600 dilution from aliquots; sufficient to produce 20% substrate conversion) and a separate solution of FAM-labeled cAMP PDE from Molecular Devices (product #R7506), at a final concentration of 50 nM are made in the assay buffer (10 mM Tris HCl, pH 7.2, 10 mM MgCl2, 0.05% NaN3 0.01% Tween-20, and 1 mM DTT). The enzyme and the substrate are then added to the assay plates in two consecutive additions of 10 μL, and then shaken to mix. The reaction is allowed to proceed at room temperature for 30 minutes. A binding solution is then made from the kit components, comprised of 80% Solution A, 20% Solution B and binding reagent at a volume of 1/600 the total binding solution.
(Polarisation of emitted light reports the rotation of a fluorescent probe.)
For the compound `COc1ccc([C@H]2C[C@@H]2COc2cc(NC(=O)c3cc(C)nn3C)c(=O)n(C)n2)nc1` [Example 101, N-(6-(((1S,2S)-2-(5-methoxypyridin-2-yl)-cyclopropyl)methoxy)-2-methyl-3-oxo-2,3-dihydropyridazin-4-yl)-1,3-dimethyl-1H-pyrazole-5-carboxamide], the Ki was 75 nM.

As for `Cc1nn(C)c(Cl)c1CNc1cc(OC[C@H]2C[C@@H]2c2ccn(C)n2)nn(C)c1=O` [Example 40], the Ki turned out to be 11.8 nM.

`Cc1nnc(CNc2cc(OC[C@H]3C[C@@H]3c3ccc(F)cn3)nn(C)c2=O)s1` [Example 7, 6-(((1S,2S)-2-(5-fluoropyridin-2-yl)cyclo-propyl)methoxy)-2-methyl-4-((5-methyl-1,3,4-thiadiazol-2-yl)methyl-amino)pyridazin-3(2H)one]: the Ki is 0.535 nM.

In the case of `Cc1ccc([C@H]2C[C@@H]2COc2cc(NCc3cnn(C)c3)c(=O)n(C)n2)nc1` [Example 10, 2-methyl-4-((1-methyl-1H-pyrazol-4-yl)methylamino)-6-(((1S,2S)-2-(5-methylpyridin-2-yl)cyclopropyl)methoxy)-pyridazin-3(2H)-one], the Ki came to 0.072 nM.

Take `CCc1cc(CNc2cc(OC[C@H]3C[C@@H]3c3ccc(OC)cn3)nn(C)c2=O)n(C)n1` [Example 137, 4-((3-ethyl-1-methyl-1H-pyrazol-5-yl)methylamino)-6-(((1S,2S)-2-(5-methoxypyridin-2-yl)cyclopropyl)methoxy)-2-methylpyridazin-3(2H)-one]: the Ki stood at 0.058 nM.

As for `COc1ccc([C@H]2C[C@@H]2COc2cc(NCc3c[nH]nn3)c(=O)n(C)n2)nc1` [Example 146, 4-((1H-1,2,3-triazol-4-yl)methylamino)-6-(((1S,2S)-2-(5-methoxypyridin-2-yl)cyclopropyl)methoxy)-2-methylpyridazin-3(2H)-one], the Ki was 0.048 nM.

As to `COc1ccc([C@H]2C[C@@H]2COc2cc(NCc3cnccn3)c(=O)n(C)n2)nc1` [Example 66, 6-(((1S,2S)-2-(5-methoxypyridin-2-yl)cyclopropyl)methoxy)-2-methyl-4-((pyrazin-2-ylmethyl)amino)pyridazin-3(2H)-one], the Ki is 5.7 nM.

For `Cc1cc(CNc2cc(OC[C@H]3C[C@@H]3c3ccc(OC(F)F)cn3)nn(C)c2=O)n(C)n1` [Example 28, 6-(((1S,2S)-2-(5-(difluoro-methoxy)pyridin-2-yl)-cyclopropyl)-methoxy)-4-((1,3-dimethyl-1H-pyrazol-5-yl)methyl-amino)-2-methylpyridazin-3(2H)one], the Ki was found to be 0.046 nM.

For the compound `Cc1ncc(CNc2cc(OC[C@H]3C[C@@H]3c3ccc(OC(F)F)cn3)nn(C)c2=O)s1` [Example 29, 6-(((1S,2S)-2-(5-(difluoromethoxy)pyridin-2-yl)cyclopropyl)-methoxy)-2-methyl-4-((2-methylthiazol-5-yl)methyl-amino)pyridazin-3(2H)one], the Ki stood at 0.109 nM.

Consider `COc1ccc([C@H]2C[C@@H]2COc2nn(C)c(=O)c(NCc3nnc(C)s3)c2Cl)nc1` [Example 141, 5-chloro-6-(((1S,2S)-2-(5-methoxypyridin-2-yl)cyclopropyl)methoxy)-2-methyl-4-((5-methyl-1,3,4-thiadiazol-2-yl)methylamino)pyridazin-3(2H)-one], for which the Ki worked out at 0.004 nM.

As to `Cc1ccc(CNc2cc(OC[C@H]3C[C@@H]3c3ccc4ccccc4n3)nn(C)c2=O)c(C)n1` [Example 57, 4-(((2,6-dimethylpyridin-3-yl)methyl)amino)-2-methyl-6-(((1S,2S)-2-(quinolin-2-yl)cyclopropyl)methoxy)-pyridazin-3(2H)-one], the Ki was 0.004 nM.

As to `Cc1ccc([C@H]2C[C@@H]2COc2cc(NCc3nc(C)cs3)c(=O)n(C)n2)nc1` [Example 12, 2-methyl-6-(((1S,2S)-2-(5-methylpyridin-2-yl)cyclo-propyl)methoxy)-4-((4-methylthiazol-2-yl)methyl-amino)pyridazin-3(2H)one], the Ki worked out at 9.89 nM.

Turning to `Cc1cnc(CNc2cc(OC[C@H]3C[C@@H]3c3nn(C)c4ccccc34)nn(C)c2=O)s1` [Example 112, 2-methyl-6-(((1S,2S)-2-(1-methyl-1H-indazol-3-yl)cyclopropyl)methoxy)-4-((5-methylthiazol-2-yl)methylamino)pyridazin-3(2H)-one], the Ki was found to be 1.4 nM.

On to `COc1ccc([C@H]2C[C@@H]2COc2cc(NCc3cnn(C)n3)c(=O)n(C)n2)nc1` [Example 148, 6-(((1S,2S)-2-(5-methoxypyridin-2-yl)cyclopropyl)methoxy)-2-methyl-4-((2-methyl-2H-1,2,3-triazol-4-yl)methylamino)pyridazin-3(2H)-one], for which the Ki is 0.648 nM.

As for `Cn1cc(CNc2cc(OC[C@H]3C[C@@H]3c3nn(C)c4ccccc34)nn(C)c2=O)cn1` [Example 111, 2-methyl-6-(((1S,2S)-2-(1-methyl-1H-indazol-3-yl)cyclopropyl)methoxy)-4-((1-methyl-1H-pyrazol-4-yl)methylamino)-pyridazin-3(2H)-one], the Ki came to 1.9 nM.

`COc1ccc([C@H]2C[C@@H]2COc2cc(NCc3ccc(C)cn3)c(=O)n(C)n2)nc1` [Example 72, 6-(((1S,2S)-2-(5-methoxy-pyridin-2-yl)cyclopropyl-)-methoxy)-2-methyl-4-(((5-methylpyridin-2-yl)-methyl)amino)pyridazin-3(2H)-one]: the Ki was found to be 0.019 nM.

Turning to `COc1ccc(CNc2cc(OC[C@H]3C[C@@H]3c3ccc(C)cn3)nn(C)c2=O)cc1` [Example 8, 4-(4-methoxybenzylamino)-2-methyl-6-(((1S,2S)-2-(5-methylpyridin-2-yl)cyclopropyl)methoxy)-pyridazin-3(2H)-one], the Ki stood at 0.074 nM.

In the case of `Cc1ccc(CNc2cc(OC[C@H]3C[C@@H]3c3ccc(F)cn3)nn(C)c2=O)c(C)n1` [Example 53, 4-(((2,6-dimethylpyridin-3-yl)methyl)amino)-6-(((1S,2S)-2-(5-fluoro-pyridin-2-yl)cyclopropyl-)-methoxy)-2-methyl-pyridazin-3(2H)-one], the Ki was 0.034 nM.

As to `C#CCN(Cc1ccc(OC)cc1)c1cc(OC[C@H]2C[C@@H]2c2ccc(OC)cn2)nn(C)c1=O` [Example 145, 4-((4-methoxybenzyl)(prop-2-ynyl)amino)-6-(((1S,2S)-2-(5-methoxypyridin-2-yl)cyclopropyl)methoxy)-2-methylpyridazin-3(2H)-one], the Ki was determined as 7.9 nM.

On to `COc1ccc([C@H]2C[C@@H]2COc2cc(NCc3ccc(Cl)c(C)n3)c(=O)n(C)n2)nc1` [Example 75, 4-(((5-chloro-6-methyl-pyridin-2-yl)methyl)-amino)-6-(((1S,2S)-2-(5-methoxypyridin-2-yl)cyclopropyl)methoxy)2-methylpyridazin-3(2H)one], for which the Ki stood at 1.3 nM.

Turning to `Cc1ccc([C@H]2C[C@@H]2COc2cc(NCc3ccc(C)nc3)c(=O)n(C)n2)nc1` [Example 11, 2-methyl-6-(((1S,2S)-2-(5-methylpyridin-2-yl)cyclopropyl)methoxy)-4-((6-methylpyridin-3-yl)methylamino)pyridazin-3(2H)-one], the Ki was determined as 0.121 nM.

Take `Cc1nc(CNc2cc(OC[C@H]3C[C@@H]3c3ccn(C)n3)nn(C)c2=O)sc1C` [Example 128, 4-((4,5-dimethylthiazol-2-yl)methylamino)-2-methyl-6-(((1S,2S)-2-(1-methyl-1H-pyrazol-3-yl)cyclo-propyl)methoxy)pyridazin-3(2H)-one]: the Ki stood at 0.368 nM.

As a reminder, the Ki is the equilibrium dissociation constant of an inhibitor or competing ligand from its target.
